# Measured values from patent publication US20040122209A1, “Products for regulating the degradation of collagen and methods for identifying same” (Shriners Hospital For Children, priority 2002, published 2004).
# Tested on: MMP-13
# Experiment: RT-PCR of MMP-13 mRNA in human chondrocyte culture
# Assay type: cell-based
# Details: 24 hours incubation; data not shown
# Source text: Isolated normal human chondrocytes were used for chondrocyte cultures, detection of integrin expression by FACScan, and cell attachment assays. The dissected normal human cartilage obtained at autopsy was cut into small cubes 2-4 mm in size. Chondrocytes were isolated as previously described (34), with some modifications. Briefly, the cubes were washed three times with medium (A). Thereafter, the diced cartilage was digested with 0.1% (wt/vol) trypsin (Sigma) and 0.02% (wt/vol) EDTA (Sigma) for 60 minutes (25 ml/10 g wet weight tissue) at 37° C. After washing the cartilage with Medium A containing 10% heat-inactivated fetal calf serum (FCS) to inhibit the trypsin, the digestion was continued in the same medium with serum (50 ml/10 g wet weight tissue) containing 0.2% (wt/vol) collagenase (type IA; Sigma) for 16 h at 37° C. with gentle agitation on a gyrotary shaker. Undigested cartilage was removed by filtration through a layer of nylon mesh (Cell Strainer; Becton Dickinson Labware, NJ). […]
# Total RNA was isolated from chondrocytes or cartilage explants by the guanidine isothiocyanate procedure according to Chomczynski and Sacchi (Chomczynski, P. et al., Anal. Biochem. 162:156-9 (1987)) with some modifications. […] The total RNA pellet was resuspended in diethyl pyrocarbonate-treated (DEPC) water and the amount of total RNA was measured by reading optical density at 260 nm. […]
sequence,measurement,value
ERGPPGPQGARGFPGTPGLPGVK [CB12-II],MMP-13 gene expression (mRNA by RT-PCR),weakly upregulated
